Test results taken from patent US9181193B2, “Indenoquinolone compound, preparation method and use thereof” (Second Military Medical University, PLA, priority 2010, dated 2015).
Converted amounts (≈) assume the structure as drawn.

How the values were obtained:
[1] = tested on: A549 (human lung cancer cells); test: MTT in vitro anti-tumor activity test, A549; format: cell-based; conditions: for IC50: Homo sapiens, A549, 72 h, read-out: A549 IC50
[2] = tested on: Colo205 (human colon cancer cells); test: MTT in vitro anti-tumor activity test, Colo205; format: cell-based; conditions: for IC50: Homo sapiens, COLO 205, 72 h, read-out: Colo205 IC50
[3] = tested on: MDA-MB-435 (human breast cancer cells); test: MTT in vitro anti-tumor activity test, MDA-MB-435; format: cell-based; conditions: for IC50: Homo sapiens, MDA-MB-435, 72 h, read-out: MDA-MB-435 IC50
[4] = tested on: HepG2 (human hepatoma cells); test: MTT in vitro anti-tumor activity test, HepG2; format: cell-based; conditions: for IC50: Homo sapiens, HepG2, 72 h, read-out: HepG2 IC50
[5] = tested on: human lung cancer cell line A549; test: Anti-tumor activity test in vivo, nude mouse model of A549; conditions: nude mouse model of A549, dose of 1-200 mg/kg weight
Description: The activities of some compounds in vivo in the nude mouse model of human lung cancer cell line A549 were detected by using literature methods (WEI Hong. Medical Experiments Zoology. 2nd edition. Chengdu: Sichuan Science and Technology Press, 2001: 595-596).

[6] = MDA-MB-435, 100 μg/mL, MTT, 72 h
[7] = A549 human lung cancer cells, MTT, 72 h
[8] = Colo205 human colon cancer cells, MTT, 72 h
[9] = MDA-MB-435 human breast cancer cells, MTT, 72 h
[10] = HepG2 human hepatoma cells, MTT, 72 h
[11] = inhibition at 100 μg/mL, MTT assay, 72 h, A549 cells
[12] = inhibition at 100 μg/mL, MTT assay, 72 h, Colo205 cells
[13] = inhibition at 100 μg/mL, MTT assay, 72 h, MDA-MB-435 cells
[14] = inhibition at 100 μg/mL, MTT assay, 72 h, HepG2 cells

| Compound | A549 100 μg/mL IC % ([1]; A549, 100 μg/mL, MTT, 72 h) [%] | IC50 [1] [µg/mL] | Colo205 100 μg/mL IC % ([2]; Colo205, 100 μg/mL, MTT, 72 h) [%] | IC50 [2] [µg/mL] | IC50 [3] [µg/mL] | MDA-MB-435 100 μg/mL IC % [3, 6] [%] | HepG2 100 μg/mL IC % ([4]; HepG2, 100 μg/mL, MTT, 72 h) [%] | IC50 [4] [µg/mL] | anti-tumor activity in vivo [5] | A549 IC50 [1, 7] [µg/mL] | Colo205 IC50 [2, 8] [µg/mL] | MDA-MB-435 IC50 [3, 9] [µg/mL] | HepG2 IC50 [4, 10] [µg/mL] | A549 100 μg/mL IC % [1, 11] [%] | Colo205 100 μg/mL IC % [2, 12] [%] | MDA-MB-435 100 μg/mL IC % [3, 13] [%] | HepG2 100 μg/mL IC % [4, 14] [%] | also measured |
| --- | --- | --- | --- | --- | --- | --- | --- | --- | --- | --- | --- | --- | --- | --- | --- | --- | --- | --- |
| COc1ccc2c(c1)C(=O)c1c-2c(OCCN(C)C)nc2ccccc12 [Compound 1] | 100 | 0.983 (≈ 2.82 µM) | 100 | 0.621 (≈ 1.78 µM) | 1 (≈ 2.87 µM) | 95.81 | 99.40 | 0.721 (≈ 2.07 µM) | good anti-tumor activity in vivo | – | – | – | – | – | – | – | – | melting point: 116 to 118 °C |
| COc1ccc2c(c1)C(=O)c1c-2c(OCCCN(C)C)nc2ccccc12 [Compound 6] | 100 | – | 100 | – | – | 100 | 98.33 | – | good anti-tumor activity in vivo | 1.14 | 0.719 | 3.64 | 2.17 | – | – | – | – | – |
| CCN(CC)CCOc1nc2ccc(OC)cc2c2c1-c1ccc(OC)cc1C2=O [Compound 14] | 100 | – | 97.47 | – | – | 99.95 | 100 | – | good anti-tumor activity in vivo | 6.11 | 0.580 | 1.29 | 0.552 | – | – | – | – | – |
| COc1ccc2c(c1)C(=O)c1c-2c(OCCN(C)C)nc2cc(OC)c(OC)cc12 [Compound 20] | 100 | – | 93.79 | – | – | 99.28 | 99.17 | – | good anti-tumor activity in vivo | 13.78 | 0.606 | 0.99 | 1.28 | – | – | – | – | – |
| COc1ccc2c(c1)C(=O)c1c-2c(=O)n(CCN(C)C)c2ccccc12 [Compound 31, 5-(2-dimethylaminoethyl)-9-methoxy-5H-indeno[1,2-c]quinoline-6,11-dione] | – | 1.72 (≈ 4.94 µM) | – | 1.2 (≈ 3.44 µM) | 1.83 (≈ 5.25 µM) | – | – | 0.746 (≈ 2.14 µM) | – | – | – | – | – | 93.62 | 88.35 | 86.09 | 90.60 | melting point: 198 to 200 °C |
| COc1ccc2c(c1)C(=O)c1c-2c(=O)n(CCCN(C)C)c2cc(OC)c(OC)cc12 [Compound 46] | – | – | – | – | – | – | – | – | good anti-tumor activity in vivo | – | – | – | – | 68.78 | 87.44 | 85.86 | 90.77 | A549 IC50 ([1]; MTT assay, 72 h incubation, A549 cells): 12.52 µg/mL; Colo205 IC50 ([2]; MTT assay, 72 h incubation, Colo205 cells): 22.18 µg/mL; MDA-MB-435 IC50 ([3]; MTT assay, 72 h incubation, MDA-MB-435 cells): 0.267 µg/mL; HepG2 IC50 ([4]; MTT assay, 72 h incubation, HepG2 cells): 12.02 µg/mL |
| CC[C@@]1(O)C(=O)OCc2c1cc1n(c2=O)Cc2cc3cc(O)ccc3nc2-1 [HCPT, 10-hydroxycamptothecin, reference compound] | 84.68 | 0.00364 (≈ 0.00999 µM) | 88.14 | 0.0049 (≈ 0.0134 µM) | 0.00127 (≈ 0.00349 µM) | 96.71 | 100 | 0.147 (≈ 0.403 µM) | – | – | – | – | – | 84.68 | 88.14 | 96.71 | 100 | – |
